Reference: publication PMC9688530, “Development of Ic-ELISA and Colloidal Gold Lateral Flow Immunoassay for the Determination of Cypermethrin in Agricultural Samples” (Biosensors, 2022)
In brackets after ≈: the same amount, converted by molar mass.

Key:
anti-CYP mAb 2G7H9 = assay: ic-ELISA based on mAb 2G7H9; format: binding, mouse
Procedure: (§1) The ic-ELISA procedure was executed according to previous studies. Each well of the ELISA plate was coated with 100 μL of coating antigen diluted with carbonate buffer (0.05 mol/L, pH 9.6) at 4 °C overnight. After washing three times with phosphate-buffered saline (PBS, 0.01 mol/L, pH 7.4) containing 1‰ Tween-20, the wells were blocked with 200 μL of 5% skim milk powder in PBS at 37 °C for two hours. After the same washing procedure, 50 μL of CYP standard solution and 50 μL of mAb were pipetted into each well and incubated at 37 °C for one hour. After washing five times, 100 μL per well of 0.5‰ horseradish peroxidase-labeled goat anti-mouse IgG antibody in PBS was added and incubated at 37 °C for one hour. After the wells were washed five times, 100 μL per well of fresh substrate solution (0.1 mg/mL 3,3′,5,5′-tetramethylbenzidine and 0.024‰ H2O2 in 0.1 M citrate acid buffer) was added to react at 37 °C for 15 min. Then, 50 μL per well of 0.2 mol/L H2SO4 was used to stop the reaction, and the absorbances were read at 450 nm with a microplate reader.
Under the optimal conditions, a standard curve was constructed using a series of concentrations of standard solutions (50, 25, 12.5, 6.25, 3.13, 1.56, 0.78, 0.39 and 0.20 ng/mL) to assess the sensitivity of ic-ELISA. The IC50 and linear range (IC10–IC90) were calculated by a logistic equation established with Origin Pro 8.0.
The CRs of the ic-ELISA were calculated with the following equation:CR (%) = (IC50 of CYP/IC50 of analogues) × 100%.

anti-CYP mAb 1E7D5 = assay: homologous ic-ELISA, hapten 1 coating antigen, mAb 1E7D5; format: binding, mouse; details: hapten 1 as coating antigen
Procedure: as §1
After five immunizations, the anti-serum of five mice was collected to determine the serum titer. All mouse serum had high titers ranging from 1:64,000 to 1:256,000. […] Then, the sensitivity of these monoclonal antibodies was evaluated by homologous ic-ELISA. […] The subtype of mAb 2G7H9 was determined as IgG2b by a kit. […]

CC1(C)C(C=C(Cl)Cl)C1C(=O)OC(C#N)c1cccc(Oc2ccccc2)c1 (stereo not drawn) [CYP, Cypermethrin] showed an IC50 (anti-CYP mAb 2G7H9; hapten 5-BSA as coating antigen, before buffer optimization) of 5.75 ng/mL (≈ 0.0138 µM), an IC50 (anti-CYP mAb 2G7H9; homologous ic-ELISA, hapten 1 as coating antigen) of 19.14 ng/mL (≈ 0.046 µM) and an IC50 (anti-CYP mAb 2G7H9; homologous ic-ELISA, hapten 1 as coating antigen, listed as Cypermethrin) of 19 ng/mL (≈ 0.0456 µM). For the same molecule, the “limit of detection (IC10)” value (anti-CYP mAb 2G7H9; optimal conditions) was 0.40 ng/mL, the “linear range (IC10–IC90)” value (anti-CYP mAb 2G7H9; optimal conditions) was 0.40 to 7.87 ng/mL and the IC50 (anti-CYP mAb 2G7H9; optimal conditions, coating antigen hapten 5-BSA, PBS pH 7.4, 10% methanol, 0.3 mol/L NaCl) was 2.49 ng/mL (≈ 0.00598 µM). It also gave an IC50 (anti-CYP mAb 2G7H9; working buffer: 10% Acetone) of 7.99 ng/mL (≈ 0.0192 µM), an IC50 (anti-CYP mAb 2G7H9; working buffer: 10% Acetonitrile) of 8.88 ng/mL (≈ 0.0213 µM) and an IC50 (anti-CYP mAb 2G7H9; working buffer: 10% Dimethyl sulfoxide) of 11.03 ng/mL (≈ 0.0265 µM). For the same molecule, the IC50 (anti-CYP mAb 2G7H9; working buffer: 10% Methanol (solvent type comparison)) was 7.67 ng/mL (≈ 0.0184 µM), the IC50 (anti-CYP mAb 2G7H9; working buffer: Methanol 5%) was 30.63 ng/mL (≈ 0.0736 µM) and the IC50 (anti-CYP mAb 2G7H9; working buffer: Methanol 20%) was 20.59 ng/mL (≈ 0.0495 µM). The IC50 (anti-CYP mAb 2G7H9; working buffer: Methanol 40%) was 24.47 ng/mL (≈ 0.0588 µM), the IC50 (anti-CYP mAb 2G7H9; working buffer: Na+ 0.07 mol/L) was 43.31 ng/mL (≈ 0.104 µM) and the IC50 (anti-CYP mAb 2G7H9; working buffer: Na+ 0.14 mol/L) was 9.22 ng/mL (≈ 0.0221 µM). It also gave an IC50 (anti-CYP mAb 2G7H9; working buffer: Na+ 0.2 mol/L) of 13.58 ng/mL (≈ 0.0326 µM), an IC50 (anti-CYP mAb 2G7H9; working buffer: Na+ 0.3 mol/L) of 2.42 ng/mL (≈ 0.00581 µM) and an IC50 (anti-CYP mAb 2G7H9; working buffer: Na+ 0.4 mol/L) of 2.94 ng/mL (≈ 0.00706 µM). It also gave an IC50 (anti-CYP mAb 2G7H9; working buffer: pH 6) of 4.41 ng/mL (≈ 0.0106 µM), an IC50 (anti-CYP mAb 2G7H9; working buffer: pH 7) of 5.24 ng/mL (≈ 0.0126 µM) and an IC50 (anti-CYP mAb 2G7H9; working buffer: pH 7.4) of 3.09 ng/mL (≈ 0.00742 µM). It also gave an IC50 (anti-CYP mAb 2G7H9; working buffer: pH 8) of 8.06 ng/mL (≈ 0.0194 µM), an IC50 (anti-CYP mAb 2G7H9; working buffer: pH 9) of 4.03 ng/mL (≈ 0.00968 µM) and an IC50 (anti-CYP mAb 1E7D5) of 314 ng/mL (≈ 0.754 µM).
